Experimental data taken from patent US12486489B2, “Culture medium for testing drug resistance of H.pylori as well as preparation method and use thereof” (priority 2022, dated 2025).

Test system: clinical H. pylori strain
Experiment: Drug resistance testing of clinical specimens on characteristic culture medium (discoloration after 36 hours)
Assay type: cell-based, Helicobacter pylori
Method: The characteristic culture media (A, B, C, D, E) are cultivated at a constant temperature of 37° C. for 36 hours in a three gas incubator. The characteristic culture media are removed and placed in a natural environment for 30 minutes to observe whether there are discolorations at the point of the culture medium where the specimen is dropped in. […] Another 100 μL of the specimen is taken and coated on Columbia solid culture medium and cultivated in a three gas incubator at a constant temperature of 37° C. for 3 days to 5 days. The number of colonies on the plate is counted to determine the initial inoculation amount. The micro dilution method is adopted to test the MIC of clinical specimen H. pylori, the test is meaningful only when there is no bacterial growth in the negative control well without bacteria and there is bacterial growth in the positive well with bacteria but without antibiotics.
(1) Transfer liquid preparation: after sterilization and cooling, BHI culture medium is added with 10% calf serum, followed by 30% glycerol to prepare H. pylori preservation solution. On this basis, 1% H. pylori selective additive is added to prepare the transfer liquid. 1 mL of transfer solution is taken into a sterile EP tube, and 6-8 sterilized small steel balls are poured into the EP tube for the subsequent use.
(3) Specimen acquisition: a biopsy tissue group is obtained from the gastric antrum and a small curvature side of the gastric body through a gastroscopy biopsy passage and placed into an EP tube (strictly sterile operation). The biopsy tissue is placed on the ice surface and transferred as soon as possible (within 2 hours) to complete the subsequent steps.
(4) Preparation of bacterial solution containing tissue: the EP tube containing tissue is placed in a homogenizer at 300 hz and crushed for 5 minutes, transferred to another EP, centrifuged at 12000 rpm for 2 minutes, the supernatant is discarded, BHI is resuspended to 200 μL, and a bacterial suspension is prepared for the subsequent use.
(5) Inoculation of bacterial solution: 10 μL of bacterial solution is taken and added dropwise to the characteristic culture medium (5 pieces in total). The characteristic culture medium is removed after cultivating in a three gas incubator at 37° C. for 36 hours, and the results are determined after leaving for 30 minutes; another 100 μL is taken and coated onto Colombian culture medium for the traditional bacterial culture.

[1] = clinical H. pylori strain FY-31
[2] = clinical H. pylori strain FY-43
[3] = clinical H. pylori strain FY-47
[4] = clinical H. pylori strain FY-52

CC1(C)S[C@@H]2[C@H](NC(=O)[C@H](N)c3ccc(O)cc3)C(=O)N2[C@H]1C(=O)O [Amoxicillin, amoxicillin]
drug resistance determined on characteristic culture medium [1]: sensitive | drug resistance determined on characteristic culture medium [2]: sensitive | drug resistance determined on characteristic culture medium [3]: sensitive | drug resistance determined on characteristic culture medium [4]: sensitive

CC[C@H]1OC(=O)[C@H](C)[C@@H](O[C@H]2C[C@@](C)(OC)[C@@H](O)[C@H](C)O2)[C@H](C)[C@@H](O[C@@H]2O[C@H](C)C[C@H](N(C)C)[C@H]2O)[C@](C)(OC)C[C@@H](C)C(=O)[C@H](C)[C@@H](O)[C@]1(C)O [Clarithromycin, clarithromycin]
drug resistance determined on characteristic culture medium [1]: sensitive | drug resistance determined on characteristic culture medium [2]: sensitive | drug resistance determined on characteristic culture medium [3]: sensitive | drug resistance determined on characteristic culture medium [4]: sensitive

Cc1ncc([N+](=O)[O-])n1CCO [Metronidazole, metronidazole]
drug resistance determined on characteristic culture medium [1]: sensitive | drug resistance determined on characteristic culture medium [2]: sensitive | drug resistance determined on characteristic culture medium [3]: resistant | drug resistance determined on characteristic culture medium [4]: sensitive
